Values joined by “and” are separate entries in the source; they are usually repeats but may differ in a detail not shown here. Identical values can stand only once. Like-named read-outs stand apart in the source and are kept apart here.
How the values were obtained:
[1] = tested on: angiogenesis induced by Angiotensin II in Sprague-Dawley rats; assay: Suppression of Angiotensin II induced angiogenesis in implanted sponge (99mTc-DTPA clearance); format: in vivo; conditions: AII (100nmol) + test drug, 7 days after injection
[2] = tested on: brain ischemia-reperfusion in Sprague-Dawley rats; assay: Protection against brain damage induced by brain ischemia-reperfusion
Description: Male Sprague-Dawley rats (350±50 g, SamYook Experimental Animals Co., Korea) were anesthetized by the injection of pentobarbital sodium at a dose of 40 mg/kg, after which the femoral vein and the artery were cannulated with PE-10 while the left carotid artery was exposed. Five min. before the operation, 20 ug/kg of heparin sulfate was injected into the peritoneal cavity. For the continuous measurement of arterial pressure, with a insertion of a blood pressure measuring device into the femoral artery. About 10 ml of blood was taken from the femoral vein to reduce the blood pressure down to 30 mmHg. If the blood pressure is not reduced to less than 100 mmHg with a withdrawal of 7 ml of blood, the rats are considered to have high sympathetic tone.
While the blood pressure was maintained at 30 mmHg, the exposed left carotid artery was occluded for 20 min by an aneurysm clamp to cause cerebral ischemia. Then, the carotid clamps were removed and the extracted blood was reinfused. To minimize the systemic acidosis, the rats were reinfused with 5 ml of saline containing 0.84% bicarbonate sodium (bicarbonate saline). During operation and restoration period, body temperature was maintained at 37±0.5 °C with the aid of a thermal blanket and incandescent light bulbs. During their restoration from the operation, the body temperature was kept constant for 2 hours or more. […]
24 hours after the operation, the rats were sacrificed with a scaffold and the brain was removed rapidly (3 min). […] After photographs were taken of the stained sections, developed and printed, the percentages of the infarcted brain areas to the total brain were measured and analyzed using an image analyzing program (Image-Pro Plus ver. 3.0.1). […]
The protective effects of the test compounds on the brain damage caused by brain ischemia-reperfusion were expressed as a reduction percentages of infarcted brain areas compared with those of the control group.

HUVEC = assay: Inhibition of intracellular ROS induced by H2O2 (H2DCFDA) in HUVEC; format: cell-based, Human; conditions: Homo sapiens; for inhibition at 10 µM: Conc. 10^-5 M; for inhibition at 1 µM: Conc. 10^-6 M; for inhibition at 0.1 µM: Conc. 10^-7 M
Description: Measurement of intracellular ROS (Reactive Oxygen Species) was determined using H2DCFDA (2',7'-dichlorodihydrofluorescein diacetate, Molecular Probes, Eugene, OR, USA). H2DCFDA is a non-polar compound that readily diffused into cells, where it is hydrolyzed by intracellular esterase to polar derivative H2DCF (2',7'-dichlorodihydrofluorescein) which can not cross the cell membrane, and thereby trapped within the cell. H2DCF is low-fluorescent, but converted to high-fluorescent DCF (2',7'-dichlorofluorescein) by intracellular ROS. Therefore, the intracellular ROS formation can be determined from the amount of converted DCF. HUVEC (Human umbilical Vascular Endothelial Cells) or A7r5 (Rat thoracic aorta smooth muscle cells) were used. HUVEC were cultured in Kaighn's F12K medium supplemented with 10% heat-inactivated FBS, 0.1 mg/ml heparin sodium, 0.03-0.05 mg/ml ECGS (Endothelial cell growth supplement) and 1% antibiotics, and A7r5 were cultured in DMEM supplemented with 10% heat inactivated FBS and 1% antibiotics. To measure the intracellular ROS, HUVEC or A7r5 were preincubated for 30 min in the presence of test compounds (10^-7-10^-5 M). Thereafter, cells were stimulated with H2O2 (10^-6 and 10^-5 M for 20 min), and then incubated in the dark for 2 hr at 37 °C in 50 mM phosphate buffer (pH 7.4) containing 5 uM H2DCFDA. The quantity of DCF fluorescence (485 nm excitation, 530 nm emission) was measured using Fluorescence plate reader (FL600, Biotek Instruments).

newborn rats = assay: Protection against hypoxic brain injury in newborn rats (proton MRS); format: in vivo; conditions: 50mg/Kg intraperitoneally 1 hr before hypoxia; proton MRS 1 day after injury
Excerpt: Focal, hypoxic brain injury model in newborn rats are being most frequently used to study infant asphyxia, because whose maturity of brain is similar to that of human infant, and it is easy to get enough number of animals required for the determination of effects. It was reported that the lipid peak was increased in MRS (magnetic resonamce spectroscopy) by ischemic neuronal cell injury due to the destruction of cell membrane including blood-brain barrier [A. Bizzi et. al., Magnetic Resonance Imagin 14 581-592 (1996)], and also the concentration of lipid and apotosis are closely correlated to apotosis [Van der A. Toorn et al., Magnetic Resonamce in Medicine, 36 , 914-922 (1996)]. N-Acetylaspartae (NAA) and creatine (Cr) are markers of neuronal cells. Then it was confirmed that the value of lipid/NAA (N-acetylaspartae) and lipid/Cr (creatine) are correlated with the morphological change and severity of apoptosis on hypoxic brain damage.
New born rats (within 7 days, 10-15 g) were placed in hypoxic chamber for 2 hr to induce hypoxia, and test compounds were intraperitoneally injected before 1 hr of hypoxia. Proton MRS was obtained at 1 day after brain injury, then the value of lipid/NAA and lipid/Cr were determined.

ischemic retinal cells = assay: Protection of ischemic retinal cells (raised intraocular pressure); format: in vivo, rats; conditions: vitreous injection 30 min before ischemia
Description: Test compounds were dissolved in DMSO to prepare stock solution (100 mM), which was diluted with physiological saline to the concentration of 100, 50 and 30 uM. Test compounds were administered by vitreous injection before 30 min of ischemia.
Adult rats were anaesthetized with ip (intra peritoneum) injection of chloral hydrate (400 mg/Kg), then the right eyes were treated with 1% tropicamide to dilate the pupils. The intraocular pressure (IOP) was raised to 160-180 mmHg, higher than normal blood pressure (140 mmHg), by cannulation of the anterior chamber connected to hydrostatic pressure device. Interruption of blood flow was confirmed ophthalmoscopically, the elevated IOP was maintained for 30 min. After 30 min of ischemia, both eyes were enucleated, and the retina was separated, of which cellular damage was observed. Number of cells in ganglion cell layer (250 x 25 um) and innernuclear layer (150 x 25 um) were counted, then calculated as a % of living cells compared to those of non-operated left eyes as a normal control.

[3] = read-out: Inhibition (%) H2O2 (10^-5M)
[4] = read-out: Inhibition (%) H2O2 (10^-6M)

Compound	Clearance of ^99mTC (%) ([1]; Dose 0.1 mg/kg (p.o))	Clearance of ^99mTC (%) ([1]; Dose 0.3 mg/kg (p.o))	Clearance of ^99mTC (%) ([1]; Dose 1.0 mg/kg (p.o))	Infarction Area Reduction(%) ([2]; Dose 30 mg/kg, compared with the control group)	Infarction Area Mean±SD(%) ([2]; Dose 30 mg/kg, peritoneally, 30 min before and 2, 4, 16 hours after occlusion)	side effects ([2]; rat, in vivo, 30 mg/kg)	inhibition at 10 µM (HUVEC; [3]) [%]	inhibition at 10 µM (HUVEC; [4]) [%]	inhibition at 1 µM (HUVEC; [3]) [%]	inhibition at 1 µM (HUVEC; [4]) [%]	inhibition at 0.1 µM (HUVEC; [3]) [%]	inhibition at 0.1 µM (HUVEC; [4]) [%]	Lipid/Cr (newborn rats)	Lipid/NAA (newborn rats)	Living cell (%) Ganglion Cell layer (ischemic retinal cells; 30 uM) [%]	Living cell (%) Innernuclear layer (ischemic retinal cells; 30 uM) [%]	Living cell (%) Ganglion Cell layer (ischemic retinal cells; 50 uM) [%]	Living cell (%) Innernuclear layer (ischemic retinal cells; 50 uM) [%]	Living cell (%) Ganglion Cell layer (ischemic retinal cells; 100 uM) [%]	Living cell (%) Innernuclear layer (ischemic retinal cells; 100 uM) [%]
COC(OC)[C@@]1(C)Oc2ccc([N+](=O)[O-])cc2[C@H](NC(=NC#N)NCc2ccccc2)[C@H]1O [Example 24, (2S, 3R, 4S)-N''-cyano-N-(6-nitro-3,4-dihydro-3-hydroxy-2-methyl-2-dimethoxymethyl-2H-benzopyran-4-yl)-N'-benzylguanidine]	26.90	18.22	3.38																	
COC(OC)[C@@]1(C)Oc2ccc(N)cc2[C@@H](NC(=NC#N)NCc2ccccc2)[C@@H]1O [Example 40, (2S, 3S, 4R)-N''-cyano-N-(6 - amino-3,4-dihydro-3-hydroxy-2-methyl-2-dimethoxymethyl-2H-benzopyran-4-yl)-N'-benzylguanidine]				42.0	23.0% and 23.0 ± 3.3%	did not suffer from any side effects	54.9	63.1	25.8	46.1	12	17.6	2.33	2.51	40.7	54.8	60.2	69.8	77.9	82.6

Reference: patent EP1228058B1, “BENZOPYRANYL GUANIDINE DERIVATIVES, PROCESS FOR PREPARATION THEREOF, AND PHARMACEUTICAL COMPOSITIONS CONTAINING THEM” (Dongbu Hannong Chemical Co., Ltd., priority 1999, dated 2001)
